Experiment [1] relates to Sugen-hypoxia (Su/Hx) mouse model of PAH. Put plainly: Sugen-hypoxia experimental PAH, interventional study. Format: in vivo, C57BL/6 mice. The conditions noted are these: intervention, treatment for 2 weeks after 2 weeks of PAH induction.
Experiment [2] has as its target T1, 5-HT2B (Homo sapiens, UniProt P41595). As to the kind of experiment: 5-HT2B functional readouts. The experiment is classed as cell-based. As to conditions: calcium mobilization and G protein dissociation (BRET2).
Experiment [3] concerns the target T1, 5-HT2B. As to conditions: read-out: previously reported IC50; cited from earlier work.
Experiment [4] has as its system Sugen-hypoxia (Su/Hx) mouse model of PAH. Put plainly: Sugen-hypoxia experimental PAH, prevention study. The experiment is classed as in vivo, C57BL/6 mice.

T1 sequence (P41595 whole entry): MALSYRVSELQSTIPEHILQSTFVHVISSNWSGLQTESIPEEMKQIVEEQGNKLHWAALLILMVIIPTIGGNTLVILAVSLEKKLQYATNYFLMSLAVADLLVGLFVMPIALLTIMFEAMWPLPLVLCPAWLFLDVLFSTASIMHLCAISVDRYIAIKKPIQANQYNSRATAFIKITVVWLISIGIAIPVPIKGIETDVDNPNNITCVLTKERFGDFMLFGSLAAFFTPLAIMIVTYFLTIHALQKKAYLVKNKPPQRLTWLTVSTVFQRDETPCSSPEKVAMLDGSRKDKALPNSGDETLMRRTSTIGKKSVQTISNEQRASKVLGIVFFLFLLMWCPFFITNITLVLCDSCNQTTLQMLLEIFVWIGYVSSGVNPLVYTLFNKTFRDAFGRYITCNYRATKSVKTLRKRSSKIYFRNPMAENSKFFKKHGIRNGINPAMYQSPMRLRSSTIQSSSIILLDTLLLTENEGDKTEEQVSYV

For the compound `Cc1cc(NC(=O)Nc2ccc3c(ccn3C)c2)sn1` [SB204741, N-(1-methyl-5-indolyl)-N'-(3-methyl-5-isothiazolyl)urea], the “number of partially and fully muscularized small vessels (0-25 μm)” value in experiment [1] was “reduced the number of partially, but not fully, muscularized small vessels”; in experiment [4] (treatment before induction of experimental PAH), “reduced the number of both partially and fully muscularized small vessels”. Also, the “behaviour in 5-HT2B functional readouts” value on 5-HT2B [2] is recorded as “true antagonist”. Besides, on 5-HT2B [3], the IC50 is 39.3 nM. In experiment [4] (osmotic pump 3 weeks, SB204741 1 mg/kg/d, VU6047534 10 mg/kg/d), the “RVSP vs vehicle control-treated Su/Hx mice” value is listed as “significantly reduced”.

A word on the IC50: it is the concentration that gives 50% inhibition.
